Reference: patent US20110137235A1, “ULTRASONIC CANCER THERAPY ACCELERATOR” (TOTO Ltd., priority 2008, published 2011)

Conditions: 20 mmol/liter acetic acid-sodium acetate buffer pH 3.6, 40° C., 25 hr
From the text: The titanium oxide complex particles and the dihydroxyphenylpropionic acid obtained in Example 1 were mixed together in 1) a 20 mmol/liter acetic acid-sodium acetate buffer solution (pH=3.6), 2) a 20 mmol/liter MES buffer solution (manufactured by Dojindo; pH=6.0), and 3) a 20 mmol/liter HEPES buffer solution (manufactured by Dojindo; pH=8.1) so that the final concentration of the titanium oxide complex particles and the final concentration of the dihydroxyphenylpropionic acid in the resultant mixed solutions were 2% and 50 mmol/liter, respectively. The total volume of each of the mixed solution was adjusted to 0.8 ml.
The adjusted solutions were stirred at 40° C. for 25 hr. For each solution, an absorption spectrum was measured in an ultraviolet-visible range (200 to 600 nm) with an ultraviolet-visible spectrometer.

Structure (SMILES): O=C(O)CCc1ccc(O)c(O)c1 [dihydroxyphenylpropionic acid]
- Change in absorption spectrum versus zero hr: little or no change was observed in the absorption spectrum
